System: adult human hepatocytes
Assay: Adult human hepatocyte organoids grown in different concentrations of A83-01
Format: cell-based
Details: albumin secretion and organoid cross-sectional area readouts
Method: In this Example, adult human hepatocytes were grown in different concentrations of A83-01, ranging from 0 nM to 40 nM. FIG. 16 illustrates albumin secretion of hepatocytes grown with 6 different concentrations of A83-01 measured by human albumin ELISA. FIG. 17 illustrates average cross-sectional area of organoids in individual wells grown in 4 different concentrations of A83-01 ranging from 0 to 100 nM. Data is represented as the mean, plus or minus standard deviation of more than 20 wells. FIG. 18 illustrates albumin secretion measured by human Albumin ELISA, comparing adult human hepatocyte organoids grown in 5 different concentrations of A83-01 ranging from 0 nM to 40 nM. The results of these studies illustrate that medium containing less than 50 nM of A83-01 is effective for adult hepatocyte growth.

A83-01 concentration in medium effective for adult hepatocyte growth: less than 50 nM
Compound: Cc1cccc(-c2nn(C(=S)Nc3ccccc3)cc2-c2ccnc3ccccc23)n1 [A83-01]

— patent US20250228899A1, “GENERATING AND UTILIZING ADULT HEPATOCYTE ORGANOIDS” (University of Washington, priority 2021, published 2025)
